Source: publication PMC4014123 (Acta Crystallographica Section D: Biological Crystallography, 2014)
Entries after “also recorded” stand apart in the source; their conditions may differ. Read-outs that look alike come from different tables or passages of the source.

Molecular target: Cp-NanI (Clostridium perfringens, UniProt A0A0H2YQR1)
Experiment: biochemical

Chain of Cp-NanI (A0A0H2YQR1 243-694 limits assumed): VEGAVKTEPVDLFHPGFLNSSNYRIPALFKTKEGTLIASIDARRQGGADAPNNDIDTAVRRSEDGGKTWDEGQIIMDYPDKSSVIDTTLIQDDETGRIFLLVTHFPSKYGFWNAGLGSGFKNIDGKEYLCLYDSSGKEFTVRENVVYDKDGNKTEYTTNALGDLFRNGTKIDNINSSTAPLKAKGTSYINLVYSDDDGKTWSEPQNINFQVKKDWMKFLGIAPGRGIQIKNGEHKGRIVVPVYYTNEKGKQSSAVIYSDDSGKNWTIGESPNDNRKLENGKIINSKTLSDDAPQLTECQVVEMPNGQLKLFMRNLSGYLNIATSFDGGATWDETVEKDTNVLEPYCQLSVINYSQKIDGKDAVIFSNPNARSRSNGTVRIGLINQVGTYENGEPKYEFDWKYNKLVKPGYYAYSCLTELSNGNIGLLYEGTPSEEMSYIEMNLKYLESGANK

6-[(2E)-3,7-dimethylocta-2,6-dienyl]-5,7-dihydroxy-2-(3-hydroxy-4-methoxyphenyl)-2,3-dihydrochromen-4-one [3′-O-Methyldiplacone]
IC50 (pH 5, read-out: IC50): 14.3 µM

COc1ccc(C2CC(=O)c3c(cc(O)c(C/C=C(\C)CCC=C(C)C)c3O)O2)cc1O (stereo not shown) [4′-O-Methyldiplacone, 6-[(2E)-3,7-dimethylocta-2,6-dienyl]-5,7-dihydroxy-2-(3-hydroxy-4-methoxyphenyl)-2,3-dihydrochromen-4-one]
IC50: 12.9 µM

CC(C)=CCC/C(C)=C/Cc1c(O)cc2c(c1O)C(=O)CC(c1ccc(O)c(O)c1)O2 (stereo not shown) [Diplacone, 2-(3,4-dihydroxyphenyl)-6-[(2E)-3,7-dimethylocta-2,6-dienyl]-5,7-dihydroxy-2,3-dihydrochromen-4-one]
IC50: 0.11 µM | inhibition kinetics / mechanism: competitive kinetics; also recorded: time-dependent inhibitor | k 5: 0.201 ± 0.003 min⁻¹ | k 6: 0.0017 ± 0.004 min⁻¹ | Ki (K i): 0.04 µM | Ki (K i ^app): 0.065 ± 0.008 µM

O=C1C[C@@H](c2ccc(O)c(O)c2)Oc2cc(O)cc(O)c21 [Eriodictyol, (2S)-2-(3,4-dihydroxyphenyl)-5,7-dihydroxy-4-chroman-one, reference compound]
IC50: 16.4 µM

CC(C)=CCC/C(C)=C/Cc1c(O)cc2c(c1O)C(=O)C[C@@H](c1ccc(O)cc1)O2 [Mimulone, (2S)-6-[(2E)-3,7-dimethylocta-2,6-dienyl]-5,7-dihydroxy-2-(4-hydroxyphenyl)-2,3-dihydrochromen-4-one]
IC50: 6.1 µM
